According to patent publication US7811797B2, “α-isomaltosylglucosaccharide-forming enzyme, process and uses of the same” (Kabushiki Kaisha Hayashibara Seibutsu Kagaku Kenkyujo, priority 2000, dated 2010):

Tests used:
Set-up in all cases: key: −: no saccharide-transferred product was detected through transfer reaction to acceptor; ∀: a saccharide-transferred product was detected in an amount less than one percent through transfer reaction to acceptor; +: a saccharide-transferred product was detected in an amount over one percent but less than ten percent through transfer reaction to acceptor; ++: a saccharide-transferred product was detected in an amount over ten percent through transfer reaction to acceptor
[1] = tested on: α-isomaltosylglucosaccharide-forming enzyme; experiment: Transfer-acceptor specificity, Enzyme of Strain C9; type: biochemical, Bacillus globisporus C9; conditions: acceptor 1.6%, PINE-DEX #100 donor 4%, one unit/g donor, 30° C., pH 6.0, 24 hours
Description: (§1) Using different saccharides, it was tested whether the saccharides were used as transferring-acceptors for the α-isomaltosylglucosaccharide-forming enzyme of the present invention. A solution of D-glucose, D-xylose, L-xylose, D-galactose, D-fructose, D-mannose, D-arabinose, D-fucose, D-psicose, L-sorbose, L-rhamnose, methyl-α-glucopyranoside, methyl-β-glucopyranoside, N-acetyl-glucosamine, sorbitol, trehalose, isomaltose, isomaltotriose, cellobiose, gentibiose, glycerol, maltitol, lactose, sucrose, α-cyclodextrin, β-cyclodextrin, γ-cyclodextrin, or L-ascorbic acid was prepared.
(§2) To each solution with a saccharide concentration of 1.6% was added “PINE-DEX #100”, a partial starch hydrolysate, as a saccharide donor, to give a concentration of 4%, and admixed with one unit/g saccharide donor, d.s.b., of either of purified specimens of α-isomaltosylglucosaccharide-forming enzyme from Bacillus globisporus C9 obtained by the method in Experiment 4-2, Bacillus globisporus C11 obtained by the method in Experiment 7-2, Bacillus globisporus N75 obtained by the method in Experiment 11-2, or Arthrobacter globiformis A19 obtained by the method in Experiment 15-2, and incubated at 30° C. and pH 6.0, except that pH 8.4 was used for the enzyme from Arthrobacter globiformis A19, for 24 hours. The reaction mixtures of the post-enzymatic reactions were analyzed on gas chromatography (abbreviated as “GLC” hereinafter) for monosaccharides and disaccharides as acceptors, and on HPLC for trisaccharides as acceptors to confirm whether these saccharides could be used as their transfer acceptors. In the case of performing GLC, the following apparatuses and conditions are used: GLC apparatus, “GC-16A” commercialized by Shimadzu Corporation, Tokyo, Japan; column, a stainless-steel column, 3 mm in diameter and 2 m in length, packed with 2% “SILICONE OV-17/[…]”, commercialized by GL Sciences Inc., Tokyo, Japan; carrier gas, nitrogen gas at a flow rate of 40 ml/min under temperature conditions of increasing from 160° C. to 320° C. at an increasing temperature rate of 7.5° C./min; and detection, a hydrogen flame ionization detector. In the case of HPLC analysis, the apparatuses and conditions used are: HPLC apparatus, “CCPD” commercialized by Tosoh Corporation, Tokyo, Japan; column, “ODS-AQ-303” commercialized by YMC Co., Ltd., Tokyo, Japan; eluent, water at a flow rate of 0.5 ml/min; and detection, a differential refractometer.

[2] = tested on: α-isomaltosylglucosaccharide-forming enzyme; experiment: Transfer-acceptor specificity, Enzyme of Strain C11; type: biochemical, Bacillus globisporus C11; conditions: acceptor 1.6%, PINE-DEX #100 donor 4%, one unit/g donor, 30° C., pH 6.0, 24 hours
Description: as §1, §2

[3] = tested on: α-isomaltosylglucosaccharide-forming enzyme; experiment: Transfer-acceptor specificity, Enzyme of Strain N75; type: biochemical, Bacillus globisporus N75; conditions: acceptor 1.6%, PINE-DEX #100 donor 4%, one unit/g donor, 30° C., pH 6.0, 24 hours
Description: as §1, §2

[4] = tested on: α-isomaltosylglucosaccharide-forming enzyme; experiment: Transfer-acceptor specificity, Enzyme of Strain A19; type: biochemical, Arthrobacter globiformis A19; conditions: acceptor 1.6%, PINE-DEX #100 donor 4%, one unit/g donor, 30° C., pH 8.4, 24 hours
Description: as §1, §2

Row | SMILES | Product of transferring reaction, Enzyme of Strain C9 [1] | Product of transferring reaction, Enzyme of Strain C11 [2] | Product of transferring reaction, Enzyme of Strain N75 [3] | Product of transferring reaction, Enzyme of Stain A19 [4]
1 | OC[C@H]1O[C@@H]2O[C@H]3[C@H](O)[C@@H](O)[C@@H](O[C@H]4[C@H](O)[C@@H](O)[C@@H](O[C@H]5[C@H](O)[C@@H](O)[C@@H](O[C@H]6[C@H](O)[C@@H](O)[C@@H](O[C@H]7[C@H](O)[C@@H](O)[C@@H](O[C@H]8[C@H](O)[C@@H](O)[C@@H](O[C@H]9[C@H](O)[C@@H](O)[C@@H](O[C@H]1[C@H](O)[C@H]2O)O[C@@H]9CO)O[C@@H]8CO)O[C@@H]7CO)O[C@@H]6CO)O[C@@H]5CO)O[C@@H]4CO)O[C@@H]3CO [γ-Cyclodextrin] | − | − | − | −
2 | OC[C@H]1O[C@@H]2O[C@H]3[C@H](O)[C@@H](O)[C@@H](O[C@H]4[C@H](O)[C@@H](O)[C@@H](O[C@H]5[C@H](O)[C@@H](O)[C@@H](O[C@H]6[C@H](O)[C@@H](O)[C@@H](O[C@H]7[C@H](O)[C@@H](O)[C@@H](O[C@H]1[C@H](O)[C@H]2O)O[C@@H]7CO)O[C@@H]6CO)O[C@@H]5CO)O[C@@H]4CO)O[C@@H]3CO [α-Cyclodextrin] | − | − | − | −
3 | O=C(CO)[C@@H](O)[C@H](O)[C@@H](O)CO [L-Sorbose] | + (a saccharide-transferred product was detected in an amount over one percent but less than ten percent through transfer reaction to acceptor) | + (a saccharide-transferred product was detected in an amount over one percent but less than ten percent through transfer reaction to acceptor) | + (a saccharide-transferred product was detected in an amount over one percent but less than ten percent through transfer reaction to acceptor) | + (a saccharide-transferred product was detected in an amount over one percent but less than ten percent through transfer reaction to acceptor)
4 | CO[C@H]1O[C@H](CO)[C@@H](O)[C@H](O)[C@H]1O [Methyl-α-glucopyranoside] | ++ (a saccharide-transferred product was detected in an amount over ten percent through transfer reaction to acceptor) | ++ (a saccharide-transferred product was detected in an amount over ten percent through transfer reaction to acceptor) | ++ (a saccharide-transferred product was detected in an amount over ten percent through transfer reaction to acceptor) | ++ (a saccharide-transferred product was detected in an amount over ten percent through transfer reaction to acceptor)
5 | CO[C@@H]1O[C@H](CO)[C@@H](O)[C@H](O)[C@H]1O [Methyl-β-glucopyranoside] | ++ (a saccharide-transferred product was detected in an amount over ten percent through transfer reaction to acceptor) | ++ (a saccharide-transferred product was detected in an amount over ten percent through transfer reaction to acceptor) | ++ (a saccharide-transferred product was detected in an amount over ten percent through transfer reaction to acceptor) | ++ (a saccharide-transferred product was detected in an amount over ten percent through transfer reaction to acceptor)
6 | OC[C@@H](O)[C@@H](O)[C@H](O)[C@@H](O)CO [Sorbitol] | − | − | − | −
7 | O=C[C@H](O)[C@@H](O)[C@@H](O)[C@H](O)CO [D-Galactose] | + (a saccharide-transferred product was detected in an amount over one percent but less than ten percent through transfer reaction to acceptor) | + (a saccharide-transferred product was detected in an amount over one percent but less than ten percent through transfer reaction to acceptor) | + (a saccharide-transferred product was detected in an amount over one percent but less than ten percent through transfer reaction to acceptor) | ∀ (a saccharide-transferred product was detected in an amount less than one percent through transfer reaction to acceptor)
8 | O=C(CO)[C@H](O)[C@H](O)[C@H](O)CO [D-Psicose] | + (a saccharide-transferred product was detected in an amount over one percent but less than ten percent through transfer reaction to acceptor) | + (a saccharide-transferred product was detected in an amount over one percent but less than ten percent through transfer reaction to acceptor) | + (a saccharide-transferred product was detected in an amount over one percent but less than ten percent through transfer reaction to acceptor) | + (a saccharide-transferred product was detected in an amount over one percent but less than ten percent through transfer reaction to acceptor)
9 | O=C[C@H](O)[C@@H](O)[C@H](O)[C@H](O)CO [D-Glucose, reference compound] | + (a saccharide-transferred product was detected in an amount over one percent but less than ten percent through transfer reaction to acceptor) | + (a saccharide-transferred product was detected in an amount over one percent but less than ten percent through transfer reaction to acceptor) | + (a saccharide-transferred product was detected in an amount over one percent but less than ten percent through transfer reaction to acceptor) | + (a saccharide-transferred product was detected in an amount over one percent but less than ten percent through transfer reaction to acceptor)
10 | C[C@@H](O)[C@H](O)[C@H](O)[C@@H](O)C=O [D-Fucose] | + (a saccharide-transferred product was detected in an amount over one percent but less than ten percent through transfer reaction to acceptor) | + (a saccharide-transferred product was detected in an amount over one percent but less than ten percent through transfer reaction to acceptor) | + (a saccharide-transferred product was detected in an amount over one percent but less than ten percent through transfer reaction to acceptor) | ∀ (a saccharide-transferred product was detected in an amount less than one percent through transfer reaction to acceptor)
11 | O=C[C@@H](O)[C@H](O)[C@@H](O)CO [L-Xylose] | ++ (a saccharide-transferred product was detected in an amount over ten percent through transfer reaction to acceptor) | ++ (a saccharide-transferred product was detected in an amount over ten percent through transfer reaction to acceptor) | ++ (a saccharide-transferred product was detected in an amount over ten percent through transfer reaction to acceptor) | + (a saccharide-transferred product was detected in an amount over one percent but less than ten percent through transfer reaction to acceptor)
